Key:
[1] = Stability of the peptide to plasma proteases in platelet-rich plasma (3 h incubation prior to agonist); format: in vitro ADME, dog; details: up to 3 h
Protocol: (§1) Blood was collected (citrated to prevent coagulation) from, naive, adult mongrel dogs. Platelet rich plasma, PRP, was prepared by centrifugation at 150×g for 10 min at room temperature. Washed platelets were prepared by centrifuging PRP at 800×g for 10 min. The cell pellet thus obtained was washed twice in Tyrode's buffer (pH 6.5) without Ca^++ and resuspended in Tyrode's buffer (pH 7.4) containing 1.8 mM Ca^++ at 3×10^5 cells/mL. Peptides were added 3 min. prior to the agonist in all assays of platelet aggregation. Final agonist concentrations were 0.1 unit/mL thrombin and […] (Sigma). Aggregation was monitored in a Chrono-Log Lumi-Aggregometer. Light transmittance 5 min after addition of the agonist was used to calculate percent aggregation according to the formula % aggregation =[(90-CR)[…]]×100, where CR is the chart reading, 90 is the baseline, and 10 is the PRP blank reading. IC50 's were determined by plotting [% inhibition of aggregation] vs. [concentration of peptide]. Peptides were assayed at 200 μM and diluted sequentially by a factor of 2 to establish a suitable dose response curve.
To assess the stability of the peptide to plasma proteases, the peptides were incubated for 3 h (rather than 3 min) in the PRP prior to addition of the agonist.

dog platelets = assay: Inhibition of platelet aggregation (dog platelets, agonist-induced, Chrono-Log Lumi-Aggregometer); format: cell-based; details: Canis lupus familiaris, stimulated by ADP, between about
Protocol: as §1

IC50 (dog platelets) | Structure (SMILES) | stability in platelet-rich plasma [1]
0.5 to 1.5 µM | CN(C(=O)c1ccccc1)[C@@H](CCCNC(=N)N)C(=O)NCC1=CC(CC(=O)O)C(=O)N(c2ccccc2)CC1 (stereo partly shown) [Example 1, 1-phenyl-2-oxo-3-carboxymethyl-5-[(N-benzoyl-N-methyl-arginylamino)methyl]-2,3,6,7-tetrahydro-1H-azepine] | stable in platelet-rich plasma for up to 3 h
0.5 to 1.5 µM | CC(=O)N(C)[C@@H](CCCNC(=N)N)C(=O)NCC1=CC(CC(=O)O)C(=O)N(c2ccccc2)CC1 (stereo partly shown) [Example 2, 1-phenyl-2-oxo-3-carboxymethyl-5-[acetyl-(N-methylarginyl)-aminomethyl]-2,3,6,7-tetrahydro-1H-azepine] | stable in platelet-rich plasma for up to 3 h

— US5470849A, “γ-turn peptidomimetics as fibrinogen antagonists” (SmithKline Beecham Corp., priority 1993, dated 1995)
